# Experimental data: US20190262404A1, “PHARMACEUTICAL COMPOSITION FOR PREVENTING OR TREATING IMMUNE DISEASE OR INFLAMMATORY DISEASE INCLUDING INFLAMMATORY STIMULATED MESENCHYMAL STEM CELL” (SCM LIFESCIENCE CO., LTD., priority 2016, published 2019)
# Read-outs that look alike come from different tables or passages of the source.
# How the values were obtained:
# Assay type in all cases: cell-based, human
# MLR-activated PBMCs = test: ELISA of proinflammatory cytokines, MSCs co-cultured with MLR-activated PBMCs, medium with nAChR antagonist or agonist
# Protocol: (§1) The medium was harvested from nAChR antagonist or agonist-containing co-culture experiments. The secreted proinflammatory cytokines were quantified using the ELISA kits for TNF-α (BD Biosciences; cat. #555212) and IFN-γ (BD Biosciences; cat. #555141). The medium in which MLR- or PHA-activated PBMCs were cultured was used to carry out the assay for NGF (R&D Systems, Minneapolis, Minn., USA; cat. # DY256-05) and BDNF (R&D Systems; cat. # DBD00).
# (§2) α-Bungarotoxin (EMD Millipore; cat. #203980), an nAChRα7 antagonist, was added to the medium at the concentration of […]. As cholinergic agonists, ACh chloride (Sigma; cat. # A6625) and carbachol (EMD Millipore; cat. #212385) were used at the concentrations of 1 nM and 10 pM, respectively, and the experiments were conducted.
# (§3) In order to confirm ACh-nAChR pathway mechanism of MSCs under the inflammatory conditions, experiments were performed according to the methods described in Experimental Examples 1-2 and 1-10. The mixed lymphocyte reaction (MLR) condition was set such that PBMCs obtained from different donors were cultured together, and the phytohemagglutinin (PHA) treatment condition was set such that PBMCs were treated with PHA. According to inflammatory conditions, each PBMCs only group (P and Po) obtained from different donors; MSCs group co-cultured in mixed lymphocyte reaction (MLR) condition (MSC in MLR); mixed lymphocyte reaction condition group without MSCs (MLR); or MSCs group co-cultured in phytohemagglutinin (PHA) treatment condition (MSC in P^PHA) were placed. A cholinergic antagonist such as α-bungarotoxin (α-BTX, an antagonist of nAChRα7); a cholinergic agonist such as ACh chloride (ACh-Cl, an agonist of AChR); or a non-specific cholinergic agonist such as carbachol was added to the medium, and the activity of TNF-α and IFN-γ of MSCs by each inflammatory condition was confirmed. The results are illustrated in FIG. 14.
# PHA-activated PBMCs = test: ELISA of proinflammatory cytokines, MSCs co-cultured with PHA-activated PBMCs, medium with nAChR antagonist or agonist
# Protocol: as §1, §2, §3
# [1] = system: MLR- or PHA-activated PBMCs; test: MSCs co-cultured with MLR- or PHA-activated PBMCs in medium supplemented with carbachol; conditions: carbachol 10 pM added to MSCs culture medium under the inflammatory condition (FIGS. 15A to 15D)
# [2] = MSCs + MLR-activated PBMCs, α-BTX 1 M or ACh-Cl 1 nM added to the medium
# [3] = MSCs + PHA-activated PBMCs, α-BTX 1 M or ACh-Cl 1 nM added to the medium
molecule,measurement,setting,value
"CC(=O)OCC[N+](C)(C)C.[Cl-] [ACh-Cl, ACh chloride]",IFN-γ,MLR-activated PBMCs; [2],significantly inhibited
same,TNF-α,MLR-activated PBMCs; [2],significantly inhibited
same,IFN-γ,PHA-activated PBMCs; [3],significantly inhibited
same,TNF-α,PHA-activated PBMCs; [3],significantly inhibited
C[N+](C)(C)CCOC(N)=O [carbachol],inflammatory cytokine release,[1],inhibited
same,lymphocyte proliferation,[1],inhibited the lymphocyte proliferation
α-Bungarotoxin [α-BTX],IFN-γ,MLR-activated PBMCs,activated again
same,TNF-α,MLR-activated PBMCs,activated again
same,IFN-γ,PHA-activated PBMCs,activated again
same,TNF-α,PHA-activated PBMCs,activated again
